The target in the assay is BTK (Homo sapiens (Human), UniProt Q06187). Briefly: Btk kinase assay (HTRF). Type of assay: biochemical. The conditions noted are these: [ATP]=80 μM, BTK=3.4 nM; read-out: BTK Inhibition. As for the experimental part: Btk Kinase Assay and Other Kinases Assay Btk kinase activity was determined using a homogenous time resolved fluorescence (HTRF) methodology. Measurements were performed in a reaction volume of 15 μL using 384-well assay plates. Kinase enzyme, inhibitor, ATP and 1 μM peptide substrate were incubated in a reaction buffer compose of Hepes 50 mM (pH7.0), NaN3 0.02%, BSA 0.01%, Orthocanadate 0.1 mM. […] For each compound, enzyme activity as measured at various concentrations of compound, Negative control reactions were performed in the absence of inhibitor in two replicates and eight no enzyme controls were used to determine baseline fluorescence levels.
Sequence of BTK (Q06187 whole entry, species assumed): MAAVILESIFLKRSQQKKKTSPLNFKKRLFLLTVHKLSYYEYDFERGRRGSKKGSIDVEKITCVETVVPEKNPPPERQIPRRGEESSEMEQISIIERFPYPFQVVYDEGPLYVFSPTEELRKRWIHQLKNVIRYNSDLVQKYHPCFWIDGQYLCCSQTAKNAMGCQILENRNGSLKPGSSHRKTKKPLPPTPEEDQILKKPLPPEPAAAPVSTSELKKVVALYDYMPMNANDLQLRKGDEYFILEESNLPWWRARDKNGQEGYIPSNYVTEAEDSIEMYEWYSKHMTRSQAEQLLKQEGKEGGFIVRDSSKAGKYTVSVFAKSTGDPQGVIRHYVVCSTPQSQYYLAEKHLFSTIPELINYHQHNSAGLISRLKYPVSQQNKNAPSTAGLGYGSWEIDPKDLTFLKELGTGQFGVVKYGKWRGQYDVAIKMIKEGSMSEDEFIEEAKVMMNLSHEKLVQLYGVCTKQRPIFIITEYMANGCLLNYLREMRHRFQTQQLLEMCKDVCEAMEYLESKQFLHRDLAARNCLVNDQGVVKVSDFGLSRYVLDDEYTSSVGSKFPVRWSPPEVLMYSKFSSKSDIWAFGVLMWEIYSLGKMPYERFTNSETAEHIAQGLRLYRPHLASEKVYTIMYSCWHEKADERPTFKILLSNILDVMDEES

pIC50: −log10 of the molar value.

This note sets out measurements from US10662187B2, “Bruton's tyrosine kinase inhibitors” (Zibo Biopolar Changsheng Pharmaceutical Co. Ltd., priority 2016, dated 2020).

In the case of `C=CC(=O)N1CC[C@@H](n2nc(-c3ccc(Oc4cccc(OC)c4F)cc3)c3cncc(C)c32)C1` [Compound 5, (R)-1-(3-(3-(4-(2-fluoro-3-methoxyphenoxy)phenyl)-7-methyl-1H-pyrazolo [4,3-c]pyridin-1-yl)pyrrolidin-1-yl) prop-2-en-1-one], the pIC50 is > 8.00. The figure for `C=CC(=O)N1CC[C@@H](n2nc(-c3ccc(Oc4cccc5ccccc45)cc3)c3cnccc32)C1` [Compound 7, (R)-1-(3-(3-(4-(naphthalen-1-yloxy)phenyl)-1H-pyrazolo[4,3-c]pyridin-1-yl)pyrrolidin-1-yl)prop-2-en-1-one] is 7.00 to 8.00; for `C=CC(=O)N1CCC[C@@H](n2nc(-c3ccc(Oc4cccc5c4OCO5)cc3)c3cnccc32)C1` [Compound 8, (R)-1-(3-(3-(4-(benzo[d][1,3]dioxol-4-yloxy)phenyl)-1H-pyrazolo[4,3-c]pyridin-1-yl)piperidin-1-yl)prop-2-en-1-one] it is 6.00 to 7.00; for `C=CC(=O)N1CCC[C@@H](n2nc(-c3ccc(Oc4cccc(Cl)c4)cc3)c3cnccc32)C1` [Compound 9, (R)-1-(3-(3-(4-(3-chlorophenoxy)phenyl)-1H-pyrazolo[4,3-c]pyridin-1-yl)piperidin-1-yl)prop-2-en-1-one] it is 7.00 to 8.00.

In the case of `C=CC(=O)N1CC[C@@H](n2nc(-c3ccc(Oc4cccc(C)c4)cc3)c3cnccc32)C1` [Compound 10, (R)-1-(3-(3-(4-(m-tolyloxy)phenyl)-1H-pyrazolo[4,3-c]pyridin-1-yl)pyrrolidin-1-yl)prop-2-en-1-one], the pIC50 is 7.00 to 8.00. Consider `C=CC(=O)N1CC[C@@H](n2nc(-c3ccc(Oc4cccc(C)c4C)cc3)c3cnccc32)C1` [Compound 12, (R)-1-(3-(3-(4-(2,3-dimethylphenoxy)phenyl)-1H-pyrazolo[4,3-c]pyridin-1-yl)pyrrolidin-1-yl)prop-2-en-1-one], for which the pIC50 was 7.00 to 8.00.

`C=CC(=O)N1CC[C@@H](n2nc(-c3ccc(Oc4cccc(OC)c4Cl)cc3)c3cnccc32)C1` [Compound 13, (R)-1-(3-(3-(4-(2-chloro-3-methoxyphenoxy)phenyl)-1H-pyrazolo[4,3-c]pyridin-1-yl)pyrrolidin-1-yl)prop-2-en-1-one]: the pIC50 was > 8.00. The figure for `C=CC(=O)N1CC[C@@H](n2nc(-c3ccc(Oc4cccc(F)c4C)cc3)c3cnccc32)C1` [Compound 14, (R)-1-(3-(3-(4-(3-fluoro-2-methylphenoxy)phenyl)-1H-pyrazolo[4,3-c]pyridin-1-yl)pyrrolidin-1-yl)prop-2-en-1-one] is 7.00 to 8.00.

Take `C=CC(=O)N1CCC[C@@H](n2nc(-c3ccc(Oc4cccc(F)c4C)cc3)c3cnccc32)C1` [Compound 16, (R)-1-(3-(3-(4-(3-fluoro-2-methylphenoxy)phenyl)-1H-pyrazolo[4,3-c]pyridin-1-yl)piperidin-1-yl)prop-2-en-1-one]: the pIC50 was 7.00 to 8.00. Turning to `C=CC(=O)N1CCC(Cn2nc(-c3ccc(Oc4ccccc4)cc3)c3cnccc32)C1` (stereo not drawn) [Compound 21, 1-(3-((3-(4-phenoxyphenyl)-1H-pyrazolo[4,3-c]pyridin-1-yl)methyl)pyrrolidin-1-yl)prop-2-en-1-one], the pIC50 is 7.00 to 8.00.

Consider `C=CC(=O)Nc1cccc(-n2nc(-c3ccc(Oc4ccccc4)cc3)c3cnccc32)c1` [Compound 22, N-(3-(3-(4-phenoxyphenyl)-1H-pyrazolo[4,3-c]pyridin-1-yl)phenyl)acrylamide], for which the pIC50 was 7.00 to 8.00. In the case of `C=CC(=O)N1CCC[C@@H](n2nc(-c3ccc(Oc4cccc(OC(C)C)c4)cc3)c3cnccc32)C1` [Compound 23, (R)-1-(3-(3-(4-(3-isopropoxyphenoxy)phenyl)-1H-pyrazolo[4,3-c]pyridin-1-yl)piperidin-1-yl)prop-2-en-1-one], the pIC50 was 7.00 to 8.00. Turning to `C=CC(=O)N1CCC[C@@H](n2nc(-c3ccc(Oc4cccc(C)c4C)cc3)c3cnccc32)C1` [Compound 24, (R)-1-(3-(3-(4-(2,3-dimethylphenoxy)phenyl)-1H-pyrazolo[4,3-c]pyridin-1-yl)piperidin-1-yl)prop-2-en-1-one], the pIC50 was > 8.00. In the case of `CC#CC(=O)N1CCC[C@@H](n2nc(-c3ccc(Oc4cccc(OC)c4Cl)cc3)c3cnccc32)C1` [Compound 25, (R)-1-(3-(3-(4-(2-chloro-3-methoxyphenoxy)phenyl)-1H-pyrazolo[4,3-c]pyridin-1-yl)piperidin-1-yl)but-2-yn-1-one], the pIC50 was 6.00 to 7.00. The figure for `C=CC(=O)N1CC2(CC(n3nc(-c4ccc(Oc5cccc(OC)c5F)cc4)c4cnccc43)C2)C1` [Compound 26, 1-(6-(3-(4-(2-fluoro-3-methoxyphenoxy)phenyl)-1H-pyrazolo[4,3-c]pyridin-1-yl)-2-azaspiro[3.3]heptan-2-yl)prop-2-en-1-one] is > 8.00; for `C=CC(=O)N1CC[C@@H](n2nc(-c3ccc(Oc4cccc(OC)c4F)cc3)c3cncc(Cl)c32)C1` [Compound 27, (R)-1-(3-(7-chloro-3-(4-(2-fluoro-3-methoxyphenoxy)phenyl)-1H-pyrazolo[4,3-c]pyridin-1-yl)pyrrolidin-1-yl)prop-2-en-1-one] it is 7.00 to 8.00; for `C=CC(=O)N1CC[C@@H](n2nc(-c3ccc(Oc4cccc(OC)c4F)cc3)c3cncc(C#N)c32)C1` [Compound 28, (R)-1-(1-acryloylpyrrolidin-3-yl)-3-(4-(2-fluoro-3-methoxyphenoxy)phenyl)-1H-pyrazolo[4,3-c]pyridine-7-carbonitrile] it is > 8.00. As to `C=CC(=O)N1CCC[C@@H](n2nc(-c3ccc(OC4CCCCC4)cc3)c3cnccc32)C1` [Compound 29, (R)-1-(3-(3-(4-(cyclohexyloxy)phenyl)-1H-pyrazolo[4,3-c]pyridin-1-yl)piperidin-1-yl)prop-2-en-1-one], the pIC50 was 7.00 to 8.00.

With `C=CC(=O)N1CC2(CC(n3nc(-c4ccc(Oc5cccc(OC)c5Cl)cc4)c4cnccc43)C2)C1` [Compound 30, 1-(6-(3-(4-(2-chloro-3-methoxyphenoxy)phenyl)-1H-pyrazolo[4,3-c]pyridin-1-yl)-2-azaspiro[3.3]heptan-2-yl)prop-2-en-1-one], the pIC50 was 6.00 to 7.00. The same measure for `C=CC(=O)N1CC[C@@H](n2nc(-c3ccc(Oc4cccc5c4CCC5)cc3)c3cnccc32)C1` [Compound 31, (R)-1-(3-(3-(4-((2,3-dihydro-1H-inden-4-yl)oxy)phenyl)-1H-pyrazolo[4,3-c]pyridin-1-yl)pyrrolidin-1-yl)prop-2-en-1-one]: 7.00 to 8.00. For the compound `C=CC(=O)N1CCC[C@@H](n2nc(-c3ccc(Oc4ccccc4)cc3)c3cnccc32)C1` [Compound 33, (R)-1-(3-(3-(4-phenoxyphenyl)-1H-pyrazolo[4,3-c]pyridin-1-yl)piperidin-1-yl)prop-2-en-1-one], the pIC50 was > 8.00.

As to `C=CC(=O)N1CCC[C@H](n2nc(-c3ccc(Oc4ccccc4)c(Cl)c3)c3cnccc32)C1` [Compound 35, (S)-1-(3-(3-(3-chloro-4-phenoxyphenyl)-1H-pyrazolo[4,3-c]pyridin-1-yl)piperidin-1-yl)prop-2-en-1-one], the pIC50 is 7.00 to 8.00. For `C=CC(=O)N1CC[C@H](n2nc(-c3ccc(Oc4cccc(Cl)c4)cc3)c3cnccc32)C1` [Compound 36, (S)-1-(3-(3-(4-(3-chlorophenoxy)phenyl)-1H-pyrazolo[4,3-c]pyridin-1-yl)pyrrolidin-1-yl)prop-2-en-1-one], the pIC50 is 7.00 to 8.00. In the case of `C=CC(=O)N1CCC[C@H](n2nc(-c3ccc(Oc4cccc(C)c4)cc3)c3cnccc32)C1` [Compound 37, (S)-1-(3-(3-(4-(m-tolyloxy)phenyl)-1H-pyrazolo[4,3-c]pyridin-1-yl)piperidin-1-yl)prop-2-en-1-one], the pIC50 is 7.00 to 8.00. `C=CC(=O)N1CC[C@@H](n2nc3ccncc3c2-c2ccc(Oc3cccc(F)c3Cl)cc2)C1` [Compound 38, (R)-1-(3-(3-(4-(2-chloro-3-fluorophenoxy)phenyl)-2H-pyrazolo[4,3-c]pyridin-2-yl)pyrrolidin-1-yl)prop-2-en-1-one]: the pIC50 is 7.00 to 8.00. As to `C=CC(=O)N1CCC[C@@H](n2nc3ccncc3c2-c2ccc(Oc3cccc(F)c3Cl)cc2)C1` [Compound 39, (R)-1-(3-(3-(4-(2-chloro-3-fluorophenoxy)phenyl)-2H-pyrazolo[4,3-c]pyridin-2-yl)piperidin-1-yl)prop-2-en-1-one], the pIC50 is 7.00 to 8.00. The same measure for `C=CC(=O)N1CCC[C@H](n2nc(-c3ccc(Oc4cccc(F)c4Cl)cc3)c3cnccc32)C1` [Compound 40, (S)-1-(3-(3-(4-(2-chloro-3-fluorophenoxy)phenyl)-1H-pyrazolo[4,3-c]pyridin-1-yl)piperidin-1-yl)prop-2-en-1-one]: 7.00 to 8.00; for `C=CC(=O)N1CC[C@H](n2nc(-c3ccc(Oc4cccc(Cl)c4Cl)cc3)c3cnccc32)C1` [Compound 42, (S)-1-(3-(3-(4-(2,3-dichlorophenoxy)phenyl)-1H-pyrazolo[4,3-c]pyridin-1-yl)pyrrolidin-1-yl)prop-2-en-1-one]: > 8.00.

Regarding `C=CC(=O)N1CCC[C@H](n2nc(-c3ccc(Oc4cccc(Cl)c4Cl)cc3)c3cnccc32)C1` [Compound 44, (S)-1-(3-(3-(4-(2,3-dichlorophenoxy)phenyl)-1H-pyrazolo[4,3-c]pyridin-1-yl)piperidin-1-yl)prop-2-en-1-one], the pIC50 is > 8.00.

`C=CC(=O)N1CC[C@@H](n2nc(-c3ccc(Oc4cccc(OC)c4F)cc3)c3c2CCN(C(C)=O)C3)C1` [Compound 45, (R)-1-(3-(5-acetyl-3-(4-(2-fluoro-3-methoxyphenoxy)phenyl)-4,5,6,7-tetrahydro-1H-pyrazolo[4,3-c]pyridin-1-yl)pyrrolidin-1-yl)prop-2-en-1-one]: the pIC50 is 5.00 to 6.00.
